One assay deals with HAP40. As to the kind of experiment: Macrocycle precipitation (MP), co-purification of HAP40, LC-MS/MS. The class given is binding, human. Conditions: HEK293T lysate versus HTT CRISPR knockout line. From the text: To assess macrocycle selectivity and identify potential HTT interacting proteins, we performed LC-MS/MS analysis of the proteins in the MP eluates. To control for non-specific binding, we performed MPs using lysates from a HTT CRISPR knockout cell line ([Jung et al., 2021]). Across all macrocycles, HTT emerged as the most enriched protein after background subtraction (Figure 5b). Given we performed affinity purification using macrocycles targeting distinct HTT surfaces, we hypothesized that any real HTT protein binder might be co-purified with two or more macrocycles. […] In contrast, HAP40 was not enriched by HL5, consistent with its specificity for apo HTT.
Macrocycles were pre-conjugated to streptavidin beads (Cytiva, 17-5113-01) by incubating with a 30 μL slurry of beads per macrocycle purification (MP) in Lysis Buffer (10 mM Tris-HCl, pH 7.9, 150 mM NaCl, 0.1% NP-40, 1:500 protease inhibitor cocktail (Sigma-Aldrich), 1:1,000 benzonase nuclease, and 2 mM MgCl2) for 1 hour at 4°C. A concentration of 1.25 μM macrocycle was used for conjugation. After incubation, beads were washed three times with 500 μL Lysis Buffer to remove unbound macrocycles and resuspended in 500 μL of lysate at 4 mg/mL protein concentration.
Cells were harvested by centrifugation at 1,500 rpm for 5 minutes, washed twice with PBS, and snap-frozen. Cell pellets were then resuspended in 500 μL of Lysis Buffer (as described above) and incubated on an end-over-end rotator at 4°C for 1 hour. Lysates were clarified by centrifugation at 20,000g for 15 minutes at 4°C, and the supernatant was transferred to fresh 1.5 mL Eppendorf tubes. Protein concentration was determined by BCA assay (Thermo Fisher Scientific, 23225), yielding approximately 4 mg of protein on average. Lysates were diluted to a final concentration of 4 mg/mL for use, providing […] of total protein per MP.
Macrocycle-conjugated beads were incubated with 2 mg of lysate in Lysis Buffer for 1 hour at 4°C with rotation. After incubation, beads were collected by centrifugation at 3,000 rpm, and the flow-through was saved for analysis. Beads were then washed sequentially with 1 mL of Wash Buffer 1 (10 mM Tris-HCl, pH 7.9, 100 mM NaCl, 0.1% NP-40) and twice with Wash Buffer 2 (Wash Buffer 1 without detergent). Lastly, bound proteins were eluted from the beads with 200 μL of 0.5 M NH4OH and flash-frozen in liquid nitrogen.
All sample preparation, LC MS/MS data collection, and MS data searches were carried out at the SPARC BioCentre at The Hospital for Sick Children (Toronto, ON, Canada). […] Samples were analyzed by liquid chromatography tandem mass spectrometry (LC-MS/MS) using an EASY-nanoLC 1200 system with a 1 h analysis and an Orbitrap Fusion™ Lumos™ Tribrid™ Mass Spectrometer (Thermo Fisher Scientific). […]

Another assay has as its target T1, HTTQ23-HAP40 (Homo sapiens, UniProt P23610+P42858, INS38QQ).
T1 construct: Full-length wildtype HTT with a polyQ tract of 23 glutamines; FLAG; made in house; host or cells: Sf9 insect cells (baculovirus)
As to the kind of experiment: Differential hydrogen-deuterium exchange mass spectrometry (ΔHDX-MS). Type of assay: binding. As to conditions: 15 μM protein, 1:4 macrocycle, labeling 0.5, 5, 30 mins at 20 °C. The protocol:
Samples were labeled at 3 timepoints (0.5, 5, 30 mins) with 87% (v/v) deuteration buffer (10 mM Phosphate Buffer pD 7.5, 150 mM NaCl) at 20 °C. The HDX reaction was quenched at 50% (v/v) with 7.5 M Guanidine-HCl, 0.5 M TCEP, 100 mM Phosphate Buffer pH 2.5 at 0 °C for 2 min and subsequently diluted with an equal volume of quench dilution buffer (100 mM Phosphate Buffer, pH 2.5). The protein was digested using 1:1 Nepenthesin(II)-Pepsin (Affipro) followed by desalting (ACQUITY UPLC BEH C18 VanGuard Pre-column, Waters) and reverse-phase separation (ACQUITY UPLC BEH C18 Column, Waters). Liquid handling was achieved using the ACQUITY UPLC M-Class System with HDX Technology (Waters) and PAL3 Robotic Tool Change (LEAP, Trajan Scientific and Medical). The peptides were then analyzed using the Select Series Cyclic IMS mass spectrometer (Q-IMS-TOF, Waters). Peptide identification and HDX data analysis were achieved using ProteinLynx Global Server 3.0.3 (Waters) and DynamX 3.0 (Waters), respectively. Microsoft Excel and PyMOL 2.5 were used for visual presentation of HDX data. An AlphaFold 3 model was used to incorporate missing loops for depicting HTTQ23 and HTTQ23-HAP40. The peptide sequence coverage for HTT and HAP40 was 56.6–76.8% and 77.4–82%, respectively (Supplementary Figure 3–5). […]

SMILES strings stand for the structures. Where a SMILES comes first, the peptide text is derived from it. Bridges are numbered along the chain shown (N, C = ends).

T1 sequence (P42858 with tags, fused parts or gaps INS38QQ): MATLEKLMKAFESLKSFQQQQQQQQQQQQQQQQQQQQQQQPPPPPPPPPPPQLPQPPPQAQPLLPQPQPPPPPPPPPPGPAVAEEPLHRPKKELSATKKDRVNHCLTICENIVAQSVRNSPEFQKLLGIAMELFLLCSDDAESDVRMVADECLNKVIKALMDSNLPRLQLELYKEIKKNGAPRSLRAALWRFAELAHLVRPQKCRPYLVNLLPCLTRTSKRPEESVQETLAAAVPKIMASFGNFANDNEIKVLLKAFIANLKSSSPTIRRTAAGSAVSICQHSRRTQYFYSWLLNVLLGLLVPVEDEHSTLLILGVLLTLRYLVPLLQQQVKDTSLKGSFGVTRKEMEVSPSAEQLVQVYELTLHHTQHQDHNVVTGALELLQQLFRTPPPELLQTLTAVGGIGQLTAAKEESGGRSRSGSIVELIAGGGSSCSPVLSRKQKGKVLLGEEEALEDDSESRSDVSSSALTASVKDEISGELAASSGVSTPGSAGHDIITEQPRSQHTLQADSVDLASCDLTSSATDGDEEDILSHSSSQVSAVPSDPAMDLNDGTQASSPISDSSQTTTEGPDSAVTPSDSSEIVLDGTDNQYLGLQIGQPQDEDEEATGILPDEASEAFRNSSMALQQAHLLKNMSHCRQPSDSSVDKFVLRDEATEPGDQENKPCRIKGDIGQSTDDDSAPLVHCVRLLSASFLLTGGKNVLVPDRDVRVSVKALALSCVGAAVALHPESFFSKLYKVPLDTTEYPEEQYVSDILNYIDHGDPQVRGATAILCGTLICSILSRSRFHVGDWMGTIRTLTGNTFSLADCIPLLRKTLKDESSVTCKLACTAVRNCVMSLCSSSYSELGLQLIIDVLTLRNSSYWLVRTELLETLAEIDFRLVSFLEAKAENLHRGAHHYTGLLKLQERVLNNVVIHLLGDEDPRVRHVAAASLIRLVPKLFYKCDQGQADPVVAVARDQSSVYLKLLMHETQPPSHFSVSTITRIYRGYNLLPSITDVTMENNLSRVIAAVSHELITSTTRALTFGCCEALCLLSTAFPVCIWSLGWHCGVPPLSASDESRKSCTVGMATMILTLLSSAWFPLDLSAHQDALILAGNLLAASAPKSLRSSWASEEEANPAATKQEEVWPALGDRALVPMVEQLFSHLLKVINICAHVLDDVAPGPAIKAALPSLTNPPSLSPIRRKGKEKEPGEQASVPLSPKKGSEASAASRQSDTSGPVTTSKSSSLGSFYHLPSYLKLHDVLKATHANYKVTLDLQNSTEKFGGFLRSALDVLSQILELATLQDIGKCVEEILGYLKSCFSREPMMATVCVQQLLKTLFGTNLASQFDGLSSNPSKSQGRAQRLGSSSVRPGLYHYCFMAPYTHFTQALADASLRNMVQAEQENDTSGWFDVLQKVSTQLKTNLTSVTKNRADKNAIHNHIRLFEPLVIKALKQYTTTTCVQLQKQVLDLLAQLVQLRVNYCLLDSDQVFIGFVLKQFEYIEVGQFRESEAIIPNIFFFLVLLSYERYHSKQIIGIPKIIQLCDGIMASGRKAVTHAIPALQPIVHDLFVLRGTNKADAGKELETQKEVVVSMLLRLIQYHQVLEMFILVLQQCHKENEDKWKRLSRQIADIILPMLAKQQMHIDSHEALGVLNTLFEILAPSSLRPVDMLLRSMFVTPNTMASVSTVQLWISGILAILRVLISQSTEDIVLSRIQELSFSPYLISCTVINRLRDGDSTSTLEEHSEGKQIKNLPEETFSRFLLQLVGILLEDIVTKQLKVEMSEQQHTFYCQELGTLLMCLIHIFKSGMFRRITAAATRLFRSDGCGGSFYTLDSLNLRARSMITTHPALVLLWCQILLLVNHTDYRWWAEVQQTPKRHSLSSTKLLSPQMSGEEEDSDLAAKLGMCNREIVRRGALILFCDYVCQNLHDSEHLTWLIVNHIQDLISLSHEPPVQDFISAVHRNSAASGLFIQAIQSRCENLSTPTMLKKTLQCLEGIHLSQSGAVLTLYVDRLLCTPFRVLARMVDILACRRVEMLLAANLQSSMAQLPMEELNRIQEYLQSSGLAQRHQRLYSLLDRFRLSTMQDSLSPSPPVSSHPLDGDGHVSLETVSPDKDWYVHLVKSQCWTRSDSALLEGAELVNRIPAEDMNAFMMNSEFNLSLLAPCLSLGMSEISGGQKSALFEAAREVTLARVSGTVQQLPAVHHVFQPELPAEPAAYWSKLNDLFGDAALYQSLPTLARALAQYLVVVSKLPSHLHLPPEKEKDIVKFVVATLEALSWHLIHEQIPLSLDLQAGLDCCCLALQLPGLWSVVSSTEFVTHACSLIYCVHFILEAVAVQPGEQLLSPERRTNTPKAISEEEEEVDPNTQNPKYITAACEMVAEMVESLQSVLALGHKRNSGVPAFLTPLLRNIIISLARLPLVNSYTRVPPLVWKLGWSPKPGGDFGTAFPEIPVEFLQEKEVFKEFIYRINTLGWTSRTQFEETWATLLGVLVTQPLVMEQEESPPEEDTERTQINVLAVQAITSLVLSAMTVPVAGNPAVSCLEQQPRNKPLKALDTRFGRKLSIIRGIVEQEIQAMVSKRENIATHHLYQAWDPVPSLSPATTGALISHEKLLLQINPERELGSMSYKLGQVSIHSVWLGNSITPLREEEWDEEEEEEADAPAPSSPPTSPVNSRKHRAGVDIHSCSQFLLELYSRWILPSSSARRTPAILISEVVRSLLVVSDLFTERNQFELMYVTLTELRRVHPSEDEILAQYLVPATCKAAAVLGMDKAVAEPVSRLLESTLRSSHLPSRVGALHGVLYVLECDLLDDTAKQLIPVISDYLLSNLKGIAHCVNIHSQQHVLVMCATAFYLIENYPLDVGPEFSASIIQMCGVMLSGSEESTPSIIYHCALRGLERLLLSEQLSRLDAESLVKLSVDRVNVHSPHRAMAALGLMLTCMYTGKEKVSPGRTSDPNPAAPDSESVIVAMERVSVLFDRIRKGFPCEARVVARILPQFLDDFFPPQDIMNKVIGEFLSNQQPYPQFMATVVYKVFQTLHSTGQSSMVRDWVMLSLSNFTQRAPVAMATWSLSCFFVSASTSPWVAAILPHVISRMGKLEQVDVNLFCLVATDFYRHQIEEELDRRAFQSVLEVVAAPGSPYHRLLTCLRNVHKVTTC
T1 sequence (P23610 whole entry, stated change not applied): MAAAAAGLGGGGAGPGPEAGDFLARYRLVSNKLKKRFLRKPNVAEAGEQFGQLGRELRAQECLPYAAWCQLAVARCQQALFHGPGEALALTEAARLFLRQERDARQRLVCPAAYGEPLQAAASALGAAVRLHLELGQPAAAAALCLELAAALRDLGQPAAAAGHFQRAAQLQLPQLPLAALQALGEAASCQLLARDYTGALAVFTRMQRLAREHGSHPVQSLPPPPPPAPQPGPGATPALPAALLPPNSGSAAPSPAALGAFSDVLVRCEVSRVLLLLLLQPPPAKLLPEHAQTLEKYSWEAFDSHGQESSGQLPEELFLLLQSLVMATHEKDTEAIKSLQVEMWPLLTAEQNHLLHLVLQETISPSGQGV

With `CC[C@H](C)[C@@H]1NC(=O)[C@H](Cc2c[nH]c3ccccc23)NC(=O)[C@@H]2CCCN2C(=O)[C@H](C)NC(=O)[C@H](C(C)C)NC(=O)[C@H](CCC(N)=O)NC(=O)[C@H](Cc2ccccc2)NC(=O)[C@H](Cc2c[nH]cn2)NC(=O)[C@H]([C@@H](C)O)NC(=O)[C@H](Cc2ccc(O)cc2)NC(=O)CSC[C@@H](C(N)=O)NC(=O)[C@H](CC(C)C)NC(=O)[C@H](CO)NC(=O)[C@H](CCC(N)=O)NC1=O` [HL5] ({CH2CO}-YTHFQVAPWIQSLC-NH2; thioether N-14; C-terminus assumed), in the assay with HAP40, the “Enrichment of HAP40 in macrocycle pulldowns” value is on record as “not enriched”. For the same compound, the “Cumulative ΔHDX of HTTQ23-HAP40 on incubation with macrocycle” value at HTTQ23-HAP40 is “no statistically significant cumulative HDX differences”.
